# From patent US6590118B1, “Aromatic compounds” (Novo Nordisk A/S, priority 1999, dated 2003)
row,melting point [°C],Compound
1,176 to 178.2,"O=C(Cc1cc([N+](=O)[O-])ccc1Cl)Nc1ccccc1Oc1ccc(C(=O)O)c(C(=O)O)c1 [Compound 175, 4-{2-[2-(2-Chloro-5-nitrophenyl)acetylamino]phenoxy}phthalic acid]"
2,187.8 to 189.9,"O=C(Cc1ccc(O)c([N+](=O)[O-])c1)Nc1ccccc1Oc1ccc(C(=O)O)c(C(=O)O)c1 [Compound 174, 4-{2-[2-(4-Hydroxy-3-nitrophenyl)-acetylamino]phenoxy}phthalic acid]"
3,176.5 to 178.1,"N#Cc1ccc(Oc2ccccc2NC(=O)c2cccc([N+](=O)[O-])c2)cc1C#N [Compound 176, N-[2-(3,4-Dicyanophenoxy)phenyl]-3-nitrobenzamide]"
4,202 to 208,"O=C(O)c1cccc(NC(=O)c2ccccc2Oc2ccc(C(=O)O)c(C(=O)O)c2)c1 [Compound 134, 4-[2-(3-Carboxyphenylcarbamoyl)phenoxy]phthalic acid]"

# Continued, compound first:
row,Compound,melting point [°C]
1,"O=C(Nc1ccccc1Sc1ccc(C(=O)O)c(C(=O)O)c1)c1cccc([N+](=O)[O-])c1 [Compound 125, 4-[2-(3-Nitrobenzoylamino)phenylsulphenyl]phthalic acid]",172.8 to 173.9
2,"CC(=O)Nc1ccccc1Oc1ccc(C#N)c(C#N)c1 [Compound 94, N-[2-(3,4-Dicyanophenoxy)phenyl]acetamide]",152.2 to 153.7
3,"COC(=O)c1ccc(C(=O)c2ccccc2NC(=O)c2cccc([N+](=O)[O-])c2)cc1C(=O)OC [Compound 115, 4-[2-(3-Nitrobenzoylamino)benzoyl]phthalic acid dimethyl ester]",133 to 137
4,"O=C(Nc1ccc(Oc2ccc(C(=O)O)c(C(=O)O)c2)cc1)c1cccc([N+](=O)[O-])c1 [Compound 123, 4-[4-(3-Nitrobenzoylamino)phenoxy]phthalic acid]",225 to 227
5,"O=C(O)c1cc(Oc2ccccc2NC(=O)c2cccc([N+](=O)[O-])c2)cc(C(=O)O)c1 [Compound 121, 5-[2-(3-Nitrobenzoylamino)phenoxy]isophthalic acid]",184 to 190
6,"COC(=O)c1ccc(C(=O)c2ccc(NC(=O)c3cccc([N+](=O)[O-])c3)cc2)cc1C(=O)OC [Compound 114, 4-[4-(3-Nitrobenzoylamino)benzoyl]phthalic acid dimethyl ester]",144 to 146
7,"O=C(O)c1ccc(Oc2ccccc2NC(=O)c2cccc([N+](=O)[O-])c2)c(C(=O)O)c1 [Compound 122, 4-[2-(3-Nitrobenzoylamino)phenoxy]isophthalic acid]",255 to 257
